# Measured values: ChEMBL document CHEMBL1201862, “PubChem BioAssay data set” (2004)
#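 Following 48 hours of exposure in 96-well plates, responses at five concentrations were used to interpolate endpoints linearly. GI50 = concentration required for 50% inhibition of growth.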 The source made the active and inactive calls. Cut-off read from the data, not from the text of the source: active = GI50 up to about 1.1 µM and inactive = higher.
# Assays:
# Test in all cases: NCI tumour cell line growth inhibition, 48 h
# MDA-MB-231 = tested on: MDA-MB-231
# Malme-3M = tested on: Malme-3M
# NCI-H23 = tested on: NCI-H23
# U-251 = tested on: U-251
# UO-31 = tested on: UO-31
# RXF 393 = tested on: RXF 393
# K562 = tested on: K562
# NCI-H522 = tested on: NCI-H522
# TK-10 = tested on: TK-10
# OVCAR-5 = tested on: OVCAR-5
# SN12C = tested on: SN12C
# HT-29 = tested on: HT-29
# MDA-MB-435 = tested on: MDA-MB-435
# SF-295 = tested on: SF-295
# SK-MEL-5 = tested on: SK-MEL-5
# SK-OV-3 = tested on: SK-OV-3
# SK-MEL-28 = tested on: SK-MEL-28
# SNB-19 = tested on: SNB-19
# SK-MEL-2 = tested on: SK-MEL-2
# Hs-578T = tested on: Hs-578T
SMILES,GI50 (MDA-MB-231),GI50 (Malme-3M),GI50 (NCI-H23),GI50 (U-251),GI50 (UO-31),GI50 (RXF 393),GI50 (K562),GI50 (NCI-H522),GI50 (TK-10),GI50 (OVCAR-5),GI50 (SN12C),GI50 (HT-29),GI50 (MDA-MB-435),GI50 (SF-295),GI50 (SK-MEL-5),GI50 (SK-OV-3),GI50 (SK-MEL-28),GI50 (SNB-19),GI50 (SK-MEL-2),GI50 (Hs-578T)
COC(=O)c1c(-c2ccccc2)c2sc3ccccc3n2c1N,87.1 µM (inactive),24.9 µM (inactive),72.1 µM (inactive),59.4 µM (inactive),85.9 µM (inactive),19.4 µM (inactive),> 100 µM (inactive),24.2 µM (inactive),54.3 µM (inactive),> 100 µM (inactive),33 µM (inactive),49.7 µM (inactive),81.7 µM (inactive),34.1 µM (inactive),59 µM (inactive),> 100 µM (inactive),66.1 µM (inactive),74.3 µM (inactive),32.9 µM (inactive),
COc1ccc(-n2cnn3c(=O)c4cn[nH]c4nc23)cc1,0.00724 µM (active),> 10 µM (inactive),> 10 µM (inactive),> 10 µM (inactive),> 10 µM (inactive),,> 10 µM (inactive),> 10 µM (inactive),> 10 µM (inactive),> 10 µM (inactive),> 10 µM (inactive),> 10 µM (inactive),> 10 µM (inactive),> 10 µM (inactive),> 10 µM (inactive),1.49 µM (inactive),,> 10 µM (inactive),,> 10 µM (inactive)
CCCCCCCNC(P(=O)(O)O)P(=O)(O)O,> 100 µM (inactive),> 100 µM (inactive),> 100 µM (inactive),> 100 µM (inactive),> 100 µM (inactive),,> 100 µM (inactive),> 100 µM (inactive),> 100 µM (inactive),> 100 µM (inactive),> 100 µM (inactive),54.7 µM (inactive),> 100 µM (inactive),> 100 µM (inactive),97.3 µM (inactive),> 100 µM (inactive),> 100 µM (inactive),> 100 µM (inactive),> 100 µM (inactive),34 µM (inactive)
N#Cc1cc2c(cc1C#N)/C(=N\c1cccc(N)n1)N/C2=N\c1cccc(N)n1,15.2 µM (inactive),14.3 µM (inactive),16.1 µM (inactive),32.5 µM (inactive),15.7 µM (inactive),,13.4 µM (inactive),9.38 µM (inactive),19.3 µM (inactive),> 100 µM (inactive),32.9 µM (inactive),23.1 µM (inactive),19.1 µM (inactive),21.3 µM (inactive),7.16 µM (inactive),13.7 µM (inactive),18.8 µM (inactive),70 µM (inactive),21.6 µM (inactive),18.5 µM (inactive)
COC(=O)CC1(CNC(=O)OCc2ccccc2)OCCO1,> 100 µM (inactive),> 100 µM (inactive),> 100 µM (inactive),> 100 µM (inactive),> 100 µM (inactive),> 100 µM (inactive),> 100 µM (inactive),> 100 µM (inactive),> 100 µM (inactive),> 100 µM (inactive),> 100 µM (inactive),,> 100 µM (inactive),> 100 µM (inactive),> 100 µM (inactive),> 100 µM (inactive),> 100 µM (inactive),> 100 µM (inactive),> 100 µM (inactive),
CCCCCCCCCCC(C)CCCCCCC(=O)O (centres undefined),,> 100 µM (inactive),> 100 µM (inactive),> 100 µM (inactive),> 100 µM (inactive),> 100 µM (inactive),> 100 µM (inactive),> 100 µM (inactive),> 100 µM (inactive),> 100 µM (inactive),> 100 µM (inactive),> 100 µM (inactive),,> 100 µM (inactive),> 100 µM (inactive),> 100 µM (inactive),> 100 µM (inactive),> 100 µM (inactive),> 100 µM (inactive),
